The text below walks through data of ChEMBL document CHEMBL5046249, “Synthesis, biological evaluation and cellular localization study of fluorescent derivatives of Jiyuan Oridonin A” (Eur J Med Chem, 2022).

Molecules are shown by their SMILES.

Common to all, as to assay type: functional, cell-based
For one experiment, the system named is MGC-803. As to the kind of experiment: Antiproliferative activity against human MGC-803 cells assessed as inhibition of cell growth measured after 72 hrs by SRB assay. The note with it: MGC-803, 72 h. Background: In SRB staining, fixed cells bind dye roughly in proportion to their protein.
The next experiment deals with SW1990. As to the kind of experiment: Antiproliferative activity against human SW1990 cells assessed as inhibition of cell growth measured after 72 hrs by SRB assay. The note with it: SW1990, 72 h.
Another experiment relates to TE-1. As to the kind of experiment: Antiproliferative activity against human TE-1 cells assessed as inhibition of cell growth measured after 72 hrs by SRB assay. The note with it: TE-1, 72 h.
A further experiment relates to HGC-27. In words: Antiproliferative activity against human HGC-27 cells assessed as inhibition of cell growth measured after 72 hrs by SRB assay. Particulars: HGC-27, 72 h.
In another experiment the test system is PC-3. In words: Antiproliferative activity against human PC-3 cells assessed as inhibition of cell growth measured after 72 hrs by SRB assay. Particulars: PC-3, 72 h.

`C=C1C(=O)[C@]23[C@H](O)[C@H]1C[C@H](O)[C@H]2[C@]12CCCC(C)(C)[C@H]1C[C@H]3O[C@H]2OCCCCCCc1cn(CCOCCOCCN2C(=O)c3cccc4c(N5CCCCC5)ccc(c34)C2=O)nn1`: the IC50 (usually the concentration at which inhibition is half-maximal) came out at 3.01 µM with MGC-803; 2.82 µM with SW1990; 1.53 µM in the experiment on TE-1; 1.88 µM in the experiment on HGC-27; 0.97 µM in the experiment on PC-3.

As to `C#CCCCCCO[C@@H]1O[C@@H]2C[C@@H]3C(C)(C)CCC[C@]13[C@@H]1[C@@H](O)C[C@H]3C(=C)C(=O)[C@@]21[C@@H]3O`, the IC50 in the experiment on MGC-803 was 3.15 µM; in the experiment on SW1990, 2.91 µM; in the experiment with TE-1 it was 2.44 µM; in the experiment on HGC-27, 2.89 µM; with PC-3, 2.45 µM.

In the case of `C=C1C(=O)[C@]23[C@H](O)[C@H]1C[C@H](O)[C@H]2[C@]12CCCC(C)(C)[C@H]1C[C@H]3O[C@H]2OCCCCCCc1cn(CCCCN2C(=O)c3cccc4c(N5CCCCC5)ccc(c34)C2=O)nn1`, the IC50 is 4.59 µM with MGC-803; 4.52 µM in the experiment on SW1990; 8.82 µM in the experiment with TE-1; 2.29 µM in the experiment on HGC-27; 6.16 µM in the experiment on PC-3.

Take `C=C1C(=O)[C@]23[C@H](O)[C@H]1C[C@H](O)[C@H]2[C@]12CCCC(C)(C)[C@H]1C[C@H]3O[C@H]2OCCCCCc1cn(CCCN2C(=O)c3cccc4c(N5CCCCC5)ccc(c34)C2=O)nn1`: the IC50 in the experiment with MGC-803 was 2.43 µM; in the experiment with SW1990, 3.65 µM; with TE-1, 4.62 µM; with HGC-27, 3.26 µM; in the experiment with PC-3, 2.49 µM.

On to `[N-]=[N+]=NCCOCCOCCN1C(=O)c2cccc3c(N4CCCCC4)ccc(c23)C1=O`, for which the IC50 in the experiment with MGC-803, in the experiment on SW1990, in the experiment on TE-1, in the experiment on HGC-27 and in the experiment with PC-3 was greater than 32 µM in each case.

As for `C=C1C(=O)[C@]23[C@H](O)[C@H]1C[C@H](O)[C@H]2[C@]12CCCC(C)(C)[C@H]1C[C@H]3O[C@H]2OCCCCc1cn(CCOCCOCCN2C(=O)c3cccc4c(N5CCCCC5)ccc(c34)C2=O)nn1`, the IC50 in the experiment on MGC-803 came to 2.93 µM; with SW1990, 2.16 µM; with TE-1 it was 2.26 µM; in the experiment with HGC-27, 1.75 µM; in the experiment on PC-3 it was 1.15 µM.

With `[N-]=[N+]=NCCN1C(=O)c2cccc3c(N4CCCCC4)ccc(c23)C1=O`, the IC50 in the experiment on MGC-803, with SW1990, in the experiment with TE-1, with HGC-27 and with PC-3 was greater than 32 µM each time.

Regarding `C=C1C(=O)[C@]23[C@H](O)[C@H]1C[C@H](O)[C@H]2[C@]12CCCC(C)(C)[C@H]1C[C@H]3O[C@H]2OCCCCCCc1cn(CCCCCN2C(=O)c3cccc4c(N5CCCCC5)ccc(c34)C2=O)nn1`, the IC50 in the experiment on MGC-803 worked out at 4.18 µM; with SW1990 it was 4.59 µM; in the experiment on TE-1 it was 3.45 µM; with HGC-27, 2.28 µM; in the experiment on PC-3, 3.89 µM.

On to `C=C1C(=O)[C@]23[C@H](O)[C@H]1C[C@H](O)[C@H]2[C@]12CCCC(C)(C)[C@H]1C[C@H]3O[C@H]2OCCc1cn(CCOCCOCCN2C(=O)c3cccc4c(N5CCCCC5)ccc(c34)C2=O)nn1`, for which the half-maximal inhibitory concentration (IC50) was 3.31 µM in the experiment with MGC-803; 2.09 µM in the experiment on SW1990; 1.83 µM in the experiment with TE-1; 3.54 µM in the experiment on HGC-27; 0.97 µM in the experiment on PC-3.

`C=C1C(=O)[C@]23[C@H](O)[C@H]1C[C@H](O)[C@H]2[C@]12CCCC(C)(C)[C@H]1C[C@H]3O[C@H]2OCCCCc1cn(CCN2C(=O)c3cccc4c(N5CCCCC5)ccc(c34)C2=O)nn1`: the IC50 is 1.21 µM in the experiment on MGC-803; 1.37 µM with SW1990; 2.25 µM in the experiment with TE-1; 6.23 µM in the experiment on HGC-27; 1.44 µM in the experiment on PC-3.

As to `C=C1C(=O)[C@]23[C@H](O)[C@H]1C[C@H](O)[C@H]2[C@]12CCCC(C)(C)[C@H]1C[C@H]3O[C@H]2OCCc1cn(CCCCCN2C(=O)c3cccc4c(N5CCCCC5)ccc(c34)C2=O)nn1`, the IC50 in the experiment on MGC-803 is 1.51 µM; in the experiment with SW1990, 2.44 µM; in the experiment with TE-1, 3.05 µM; with HGC-27, 2.45 µM; with PC-3 it was 0.5 µM.

Take `C#CCCCO[C@@H]1O[C@@H]2C[C@@H]3C(C)(C)CCC[C@]13[C@@H]1[C@@H](O)C[C@H]3C(=C)C(=O)[C@@]21[C@@H]3O`: the IC50 is 2.46 µM in the experiment on MGC-803; 3.22 µM in the experiment on SW1990; 4.23 µM with TE-1; 2.68 µM in the experiment with HGC-27; 5.37 µM with PC-3.

With `C=C1C(=O)[C@]23[C@H](O)[C@H]1C[C@H](O)[C@H]2[C@]12CCCC(C)(C)[C@H]1C[C@H]3O[C@H]2OCCCc1cn(CCOCCN2C(=O)c3cccc4c(N5CCCCC5)ccc(c34)C2=O)nn1`, the half-inhibitory concentration (IC50) in the experiment on MGC-803 was 3.83 µM; in the experiment on SW1990, 2.39 µM; with TE-1, 2.26 µM; in the experiment on HGC-27 it was 2.16 µM; with PC-3 it was 1.41 µM.

Consider `C=C1C(=O)[C@]23[C@H](O)[C@H]1C[C@H](O)[C@H]2[C@]12CCCC(C)(C)[C@H]1C[C@H]3O[C@H]2OCCCc1cn(CCCCCCN2C(=O)c3cccc4c(N5CCCCC5)ccc(c34)C2=O)nn1`, for which the IC50 in the experiment on MGC-803 worked out at 0.91 µM; in the experiment with SW1990, 1.2 µM; in the experiment with TE-1, 2.97 µM; with HGC-27, 3.32 µM; in the experiment with PC-3, 0.74 µM.

Regarding `[N-]=[N+]=NCCCCCCN1C(=O)c2cccc3c(N4CCCCC4)ccc(c23)C1=O`, the IC50 with MGC-803, in the experiment on SW1990, in the experiment with TE-1, with HGC-27 and in the experiment on PC-3 was greater than 32 µM in each case.

In the case of `C=C1C(=O)[C@]23[C@H](O)[C@H]1C[C@H](O)[C@H]2[C@]12CCCC(C)(C)[C@H]1C[C@H]3O[C@H]2OCCCCCc1cn(CCCCCN2C(=O)c3cccc4c(N5CCCCC5)ccc(c34)C2=O)nn1`, the IC50 turned out to be 2.44 µM in the experiment with MGC-803; 2.79 µM in the experiment with SW1990; 4.67 µM with TE-1; 1.67 µM with HGC-27; 0.78 µM in the experiment on PC-3.

As to `[N-]=[N+]=NCCCCCN1C(=O)c2cccc3c(N4CCCCC4)ccc(c23)C1=O`, the IC50 in the experiment on MGC-803, with SW1990, in the experiment on TE-1, in the experiment on HGC-27 and in the experiment with PC-3 was greater than 32 µM throughout.

On to `C=C1C(=O)[C@]23[C@H](O)[C@H]1C[C@H](O)[C@H]2[C@]12CCCC(C)(C)[C@H]1C[C@H]3O[C@H]2OCCc1cn(CCCN2C(=O)c3cccc4c(N5CCCCC5)ccc(c34)C2=O)nn1`, for which the half-inhibitory concentration (IC50) is 1.97 µM with MGC-803; 0.97 µM in the experiment with SW1990; 3.04 µM in the experiment with TE-1; 2.29 µM in the experiment with HGC-27; 0.8 µM in the experiment with PC-3.

On to `C=C1C(=O)[C@]23[C@H](O)[C@H]1C[C@H](O)[C@H]2[C@]12CCCC(C)(C)[C@H]1C[C@H]3O[C@H]2OCCCCCc1cn(CCOCCN2C(=O)c3cccc4c(N5CCCCC5)ccc(c34)C2=O)nn1`, for which the IC50 in the experiment with MGC-803 turned out to be 2.78 µM; in the experiment with SW1990 it was 3.36 µM; in the experiment on TE-1 it was 2.37 µM; with HGC-27 it was 1.64 µM; in the experiment with PC-3 it was 0.87 µM.

As to `C=C1C(=O)[C@]23[C@H](O)[C@H]1C[C@H](O)[C@H]2[C@]12CCCC(C)(C)[C@H]1C[C@H]3O[C@H]2OCCCc1cn(CCOCCOCCN2C(=O)c3cccc4c(N5CCCCC5)ccc(c34)C2=O)nn1`, the IC50 in the experiment with MGC-803 turned out to be 3.45 µM; in the experiment with SW1990, 1.94 µM; with TE-1, 3.02 µM; with HGC-27, 1.25 µM; in the experiment on PC-3, 2.17 µM.

For the compound `C#CCCO[C@@H]1O[C@@H]2C[C@@H]3C(C)(C)CCC[C@]13[C@@H]1[C@@H](O)C[C@H]3C(=C)C(=O)[C@@]21[C@@H]3O`, the IC50 was 6.36 µM with MGC-803; 4.23 µM with SW1990; 7.39 µM in the experiment with TE-1; 6.48 µM with HGC-27; 4.25 µM in the experiment on PC-3.

Consider `C=C1C(=O)[C@]23[C@H](O)[C@H]1C[C@H](O)[C@H]2[C@]12CCCC(C)(C)[C@H]1C[C@H]3O[C@H]2OCCCCCCc1cn(CCCN2C(=O)c3cccc4c(N5CCCCC5)ccc(c34)C2=O)nn1`, for which the 50% inhibitory concentration (IC50) in the experiment on MGC-803 came to 6.06 µM; in the experiment with SW1990, 3.19 µM; in the experiment with TE-1, 3.67 µM; with HGC-27, 2.48 µM; in the experiment with PC-3 it was 2.38 µM.

As for `C=C1C(=O)[C@]23[C@H](O)[C@H]1C[C@H](O)[C@H]2[C@]12CCCC(C)(C)[C@H]1C[C@H]3O[C@H]2OCCCCCCc1cn(CCN2C(=O)c3cccc4c(N5CCCCC5)ccc(c34)C2=O)nn1`, the IC50 in the experiment on MGC-803 was determined as 3.25 µM; in the experiment on SW1990, 2.88 µM; in the experiment with TE-1, 4.66 µM; in the experiment on HGC-27, 3.74 µM; in the experiment on PC-3 it was 1.6 µM.

For `[N-]=[N+]=NCCCN1C(=O)c2cccc3c(N4CCCCC4)ccc(c23)C1=O`, the IC50 in the experiment with MGC-803, in the experiment with SW1990, with TE-1, in the experiment with HGC-27 and with PC-3 was greater than 32 µM in each case.

For `C=C1C(=O)[C@]23[C@H](O)[C@H]1C[C@H](O)[C@H]2[C@]12CCCC(C)(C)[C@H]1C[C@H]3O[C@H]2OCCc1cn(CCCCN2C(=O)c3cccc4c(N5CCCCC5)ccc(c34)C2=O)nn1`, the IC50 in the experiment with MGC-803 came to 1.51 µM; in the experiment on SW1990, 1.61 µM; in the experiment on TE-1 it was 4.89 µM; in the experiment on HGC-27, 1.61 µM; in the experiment on PC-3, 0.74 µM.
